Several values for one entry are separate records, joined by “and”; a condition that tells them apart may be missing. Equal entries are not always repeated.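 All cell lines were grown in 96-well plates and treated with compound for 48 hours. At the GI50, growth is halved. TGI: total growth inhibition.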
Legend:
Experiment in all cases: inhibition of tumour cell growth, NCI panel, 48 h
[1] = system: HCT-15 colon
[2] = system: PC-3 prostate
[3] = system: SN12C renal
[4] = system: HOP-62 NSCLC
[5] = system: HOP-92 NSCLC
[6] = system: MCF7 breast
[7] = system: NCI-H522 lung
[8] = system: SNB-19 CNS
[9] = system: LXFL 529 NSCLC
[10] = system: KM20L2 colon

| SMILES | TGI [1] | TGI [2] [µM] | TGI [3] | TGI [4] | TGI [5] | TGI [6] | TGI [7] | TGI [8] | TGI [9] | GI50 [1] | GI50 [3] | GI50 [4] | TGI [10] | GI50 [9] | GI50 [2] [µM] | GI50 [5] [µM] | GI50 [6] [µM] | GI50 [7] | GI50 [8] [µM] |
| --- | --- | --- | --- | --- | --- | --- | --- | --- | --- | --- | --- | --- | --- | --- | --- | --- | --- | --- | --- |
| Cc1ccc(S(=O)(=O)Nc2ccccc2C=O)cc1 | 31.6 µM | 35.6 | 45 µM | 85 µM | 13.1 µM | 35.2 µM | 82.1 µM | 75 µM |  |  |  |  |  |  |  |  |  |  |  |
| CC(C)CCC1CC2C(=O)N(c3ccccc3)C(=O)C2c2[nH]c3ccccc3c21 (configuration not stated) | 13.4 µM |  | 15.4 µM |  |  |  |  | 20.6 µM | 20.2 µM |  |  |  |  |  |  |  |  |  |  |
| Clc1ccc2c(c1)[nH]c1c2nc2ccccn21 | > 100 µM and 38.5 µM |  | > 100 µM and 32.2 µM | > 100 µM and 55.6 µM |  |  | 45.6 µM and 39.6 µM | 58.6 µM and 35.3 µM | > 100 µM and 30 µM | 40.8 µM and 20 µM | 36.1 µM and 15.4 µM | 78 µM and 24.6 µM | 74.9 µM and 28.7 µM | 35.9 µM and 16.2 µM |  |  |  |  |  |
| COc1cccc(C2CC(C)(O)Oc3cc4c(cc32)OCO4)c1O (configuration not stated) | > 72.5 µM | > 100 | 89.2 µM | 79.7 µM | 92.5 µM | > 66.5 µM | 53.5 µM | > 100 µM |  |  |  |  |  |  |  |  |  |  |  |
| CC(=O)CCn1c(=S)sc2ccccc21 | > 100 µM | > 100 | > 100 µM | > 100 µM | > 100 µM | > 100 µM | > 100 µM | > 100 µM |  |  |  |  |  |  |  |  |  |  |  |
| C/C=C(\C)C(=O)O[C@H]1C=CC(=O)O[C@H]1CCC(=O)[C@H](C)O | 27.1 µM | 32 | 46.9 µM | 48.2 µM | 28.3 µM | 21.9 µM | 33.7 µM | 83.5 µM |  | 11.6 µM | 18.5 µM | 22.5 µM |  |  | 15.8 | 14.3 | 7.47 | 13.5 µM | 25.7 |
| COc1ccccc1/C=N\N/C(N)=N\N=C\c1ccccc1OC | > 37.5 µM | > 66.2 | > 46.8 µM | 6.68 µM | 31.6 µM | 4.36 µM |  | 27.7 µM |  | 0.465 µM | 1.7 µM | 0.586 µM |  |  | 0.476 | 0.578 | 0.254 | 0.956 µM | 0.376 |
| COC(=O)C(C(=O)c1ccccc1)C(C(=O)C(=O)Nc1ccc(OC)cc1OC)C(=O)C(=O)c1ccc(C)cc1 (configuration not stated) | > 100 µM |  | > 100 µM | > 100 µM |  |  | > 100 µM | > 100 µM | > 100 µM |  |  |  | > 100 µM |  |  |  |  |  |  |
| COc1cccc(CC(C)=C(c2ccc(OCCN(C)C)cc2)c2ccc(OCCN(C)C)cc2)c1 | 3.6 µM | 6.82 | 8.69 µM | 6.92 µM | 4.48 µM | 3.85 µM | 7.95 µM | 8.99 µM |  | 0.974 µM | 4.19 µM | 2.24 µM |  |  | 1.95 | 0.865 | 0.926 | 2.86 µM | 4.38 |
| CSC1=Nc2c(c(C)c(C)n2COC(CO)CO)C2=NC(=O)C(C)N12 (configuration not stated) | > 100 µM | > 100 | > 100 µM | > 100 µM | > 100 µM | > 100 µM | > 100 µM | > 100 µM |  | > 100 µM | > 100 µM | > 100 µM |  |  | > 100 | > 100 | > 100 | > 100 µM | > 100 |
| COc1cccc(F)c1C(=O)c1cnc(NC2CCN(S(C)(=O)=O)CC2)nc1N | > 25 µM | 12.3 | > 25 µM | 23 µM | 9.15 µM | > 25 µM | > 23.7 µM | > 25 µM |  | 3.63 µM | 5.08 µM | 4.64 µM |  |  | 0.984 | 1.05 | 0.326 | 7.87 µM | 3.46 |
| CC1(C)N=C(N)N=C(N)N1c1ccc(CCCCc2ccc(Cl)cc2S(=O)(=O)F)c(Cl)c1 | > 51.3 µM | 16.7 | 14.7 µM | 12.7 µM | 12.6 µM | 9.49 µM | 13.4 µM | 21.3 µM |  | 0.464 µM | 0.34 µM | 0.63 µM |  |  | 0.323 | 1.32 | 0.327 | 0.53 µM | 0.76 |
| CC(=O)OC1COC(Oc2c(C)c3c4c(c2O)[C@@H](C)CC[C@@H]4[C@@H](C)C[C@H]3C=C(C)C)C(O)C1OC(C)=O (some centres not stated) | 21.2 µM | 25.2 | 25.8 µM | 36.1 µM | 35.1 µM | > 100 µM | 35 µM | 40.1 µM |  | 5.76 µM | 12.4 µM | 20 µM |  |  | 11.3 | 16.3 | 17.5 | 17.6 µM | 16 |
| N#Cc1c(N)nc(N2CCOCC2)c(C#N)c1-c1ccncc1 | > 100 µM | > 100 | > 100 µM | > 100 µM | > 100 µM | > 100 µM | > 100 µM | > 100 µM |  | > 100 µM | 88.6 µM | 29.6 µM |  |  | 32 | 31.7 | 34.5 | 22.7 µM | > 100 |
| COC(=O)C[C@](O)(CCCC(C)(C)O)C(=O)O[C@@H]1C(OC)=C[C@]23CCCN2CCc2cc4c(cc2[C@H]13)OCO4 | 1.85 µM and 4.71 µM |  | 0.666 µM and 0.526 µM | 0.366 µM and 0.265 µM | 0.633 µM and 0.156 µM | 0.377 µM and 0.0666 µM | 0.186 µM and 0.0288 µM | 1.29 µM and 1.39 µM |  | 0.0944 µM | 0.0405 µM | 0.0363 µM | 0.338 µM |  | 0.0288 | 0.0224 | < 0.01 | 0.0482 µM and < 0.01 µM | 0.0214 |
| CC(C)C1=CC23CCC4C(C)(C(=O)O)CCCC4(C)C2CC1C1C(=O)N(c2ccc(Cc4ccc(N5C(=O)C6C7CC8C9(C)CCCC(C)(C(=O)O)C9CCC8(C=C7C(C)C)C6C5=O)cc4)cc2)C(=O)C13 (configuration not stated) | 24.5 µM | 15.7 | 25.3 µM | 25.2 µM | 36.8 µM | 18.9 µM | 24.1 µM | 17.9 µM |  |  |  |  |  |  |  |  |  |  |  |
| O=C(O)c1nnsc1-c1ccc(-c2snnc2C(=O)O)cc1 | > 100 µM | > 100 | > 100 µM | > 100 µM | > 100 µM | > 100 µM | > 100 µM | > 100 µM |  |  |  |  |  |  |  |  |  |  |  |
| Cc1cn2c(=O)c3ncn(C4OC(CO)C(O)C4O)c3n(C)c2n1 (configuration not stated) | > 100 µM |  | > 100 µM |  | > 100 µM |  | > 100 µM | > 100 µM | > 100 µM |  |  |  | > 100 µM |  |  |  |  |  |  |
